# Experimental data from the kinase profiling compilation of Christmann-Franck et al. (2016).
# Legend:
# Experiment in all cases: radiometric filter-binding kinase assay, Kinase HotSpot
# Settings in all cases: compound 0.5 µM; ATP 10 µM
# [1] = target: MAP3K14 (human) (UniProt Q99558)
# [2] = target: STK17A (human) (UniProt Q9UEE5)
# [3] = target: PRKCB1 (human) (UniProt P05771)
# [4] = target: EPHA2 (human) (UniProt P29317)
# [5] = target: TXK (human) (UniProt P42681)
# [6] = target: FER (human) (UniProt P16591)
# [7] = target: DCLK2 (human) (UniProt Q8N568)
# [8] = target: MST1R (human) (UniProt Q04912)
# [9] = target: CLK3 (human) (UniProt P49761)
# [10] = target: EPHB4 (human) (UniProt P54760)
# Sequence of EPHB4 (human) (P54760 whole entry, looked up): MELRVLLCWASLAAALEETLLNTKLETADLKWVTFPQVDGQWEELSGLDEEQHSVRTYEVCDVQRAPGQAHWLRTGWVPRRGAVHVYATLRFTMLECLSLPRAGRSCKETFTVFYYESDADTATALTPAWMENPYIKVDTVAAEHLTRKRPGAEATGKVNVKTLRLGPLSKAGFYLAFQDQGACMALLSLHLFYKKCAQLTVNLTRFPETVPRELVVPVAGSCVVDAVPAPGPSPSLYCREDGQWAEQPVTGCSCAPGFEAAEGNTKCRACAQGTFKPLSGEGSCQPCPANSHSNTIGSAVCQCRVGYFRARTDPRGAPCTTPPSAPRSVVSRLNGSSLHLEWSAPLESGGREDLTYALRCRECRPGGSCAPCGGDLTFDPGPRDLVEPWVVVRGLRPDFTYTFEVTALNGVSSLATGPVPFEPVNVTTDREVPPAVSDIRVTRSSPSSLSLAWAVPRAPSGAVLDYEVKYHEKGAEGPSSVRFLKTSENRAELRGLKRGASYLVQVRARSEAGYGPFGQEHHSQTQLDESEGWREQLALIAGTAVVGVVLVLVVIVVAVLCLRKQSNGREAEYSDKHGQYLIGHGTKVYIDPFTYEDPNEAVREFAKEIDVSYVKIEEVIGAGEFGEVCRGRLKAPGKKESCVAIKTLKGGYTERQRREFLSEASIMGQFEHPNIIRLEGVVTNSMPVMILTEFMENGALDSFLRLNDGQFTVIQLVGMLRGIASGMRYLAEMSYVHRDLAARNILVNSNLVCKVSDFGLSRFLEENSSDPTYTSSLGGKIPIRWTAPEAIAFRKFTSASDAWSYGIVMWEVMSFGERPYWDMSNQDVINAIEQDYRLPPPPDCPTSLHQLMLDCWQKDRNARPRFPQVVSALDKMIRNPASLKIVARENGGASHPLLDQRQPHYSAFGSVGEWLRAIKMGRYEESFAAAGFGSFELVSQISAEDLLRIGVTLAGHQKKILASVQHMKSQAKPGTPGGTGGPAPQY
# [11] = target: PHKG1 (human) (UniProt Q16816)
# [12] = target: AKT1 (human) (UniProt P31749)
# [13] = target: NEK2 (human) (UniProt P51955)
# Sequence of NEK2 (human) (P51955 whole entry, looked up): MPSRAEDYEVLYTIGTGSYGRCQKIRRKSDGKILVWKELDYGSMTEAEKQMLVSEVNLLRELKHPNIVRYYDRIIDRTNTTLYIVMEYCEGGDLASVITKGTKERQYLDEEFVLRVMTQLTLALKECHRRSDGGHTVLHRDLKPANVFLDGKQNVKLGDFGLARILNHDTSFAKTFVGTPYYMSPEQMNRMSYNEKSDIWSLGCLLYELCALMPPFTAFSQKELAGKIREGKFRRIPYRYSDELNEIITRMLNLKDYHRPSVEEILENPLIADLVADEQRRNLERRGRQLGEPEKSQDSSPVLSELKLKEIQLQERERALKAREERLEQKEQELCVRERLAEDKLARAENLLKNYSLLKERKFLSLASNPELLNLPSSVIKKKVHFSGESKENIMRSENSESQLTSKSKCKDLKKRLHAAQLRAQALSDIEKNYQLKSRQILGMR
# [14] = target: ROCK1 (human) (UniProt Q13464)
# [15] = target: AURKB (human) (UniProt Q96GD4)
# [16] = target: RIPK2 (human) (UniProt O43353)
# [17] = target: FYN (human) (UniProt P06241)
# [18] = target: PDGFRA (human) (UniProt P16234)
# [19] = target: EPHB3 (human) (UniProt P54753)
# [20] = target: CHEK2 (human) (UniProt O96017)
# Sequence of CHEK2 (human) (O96017 whole entry, looked up): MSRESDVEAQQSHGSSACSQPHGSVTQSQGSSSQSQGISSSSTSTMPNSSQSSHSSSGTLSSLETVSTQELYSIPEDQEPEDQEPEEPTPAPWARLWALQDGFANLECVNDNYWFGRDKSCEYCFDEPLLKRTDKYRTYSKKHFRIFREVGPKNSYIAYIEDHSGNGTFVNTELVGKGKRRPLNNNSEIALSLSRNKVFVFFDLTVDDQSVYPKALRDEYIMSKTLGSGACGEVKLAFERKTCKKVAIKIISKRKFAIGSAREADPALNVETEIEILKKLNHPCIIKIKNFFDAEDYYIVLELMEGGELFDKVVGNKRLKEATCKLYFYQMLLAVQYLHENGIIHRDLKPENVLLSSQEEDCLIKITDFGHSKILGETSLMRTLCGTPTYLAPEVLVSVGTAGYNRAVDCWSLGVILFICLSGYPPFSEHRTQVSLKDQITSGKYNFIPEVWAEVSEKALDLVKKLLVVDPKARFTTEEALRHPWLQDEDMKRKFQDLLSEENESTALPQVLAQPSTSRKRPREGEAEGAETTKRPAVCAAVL
# [21] = target: JAK3 JH1 JH2 (human) (UniProt P52333)
# [22] = target: ACVR1 (human) (UniProt Q04771)
# [23] = target: TGFBR2 (human) (UniProt P37173)
# [24] = target: KDR (human) (UniProt P35968)
# [25] = target: PLK1 (human) (UniProt P53350)
# [26] = target: CDC42BPB (human) (UniProt Q9Y5S2)
# Sequence of CDC42BPB (human) (Q9Y5S2 whole entry, looked up): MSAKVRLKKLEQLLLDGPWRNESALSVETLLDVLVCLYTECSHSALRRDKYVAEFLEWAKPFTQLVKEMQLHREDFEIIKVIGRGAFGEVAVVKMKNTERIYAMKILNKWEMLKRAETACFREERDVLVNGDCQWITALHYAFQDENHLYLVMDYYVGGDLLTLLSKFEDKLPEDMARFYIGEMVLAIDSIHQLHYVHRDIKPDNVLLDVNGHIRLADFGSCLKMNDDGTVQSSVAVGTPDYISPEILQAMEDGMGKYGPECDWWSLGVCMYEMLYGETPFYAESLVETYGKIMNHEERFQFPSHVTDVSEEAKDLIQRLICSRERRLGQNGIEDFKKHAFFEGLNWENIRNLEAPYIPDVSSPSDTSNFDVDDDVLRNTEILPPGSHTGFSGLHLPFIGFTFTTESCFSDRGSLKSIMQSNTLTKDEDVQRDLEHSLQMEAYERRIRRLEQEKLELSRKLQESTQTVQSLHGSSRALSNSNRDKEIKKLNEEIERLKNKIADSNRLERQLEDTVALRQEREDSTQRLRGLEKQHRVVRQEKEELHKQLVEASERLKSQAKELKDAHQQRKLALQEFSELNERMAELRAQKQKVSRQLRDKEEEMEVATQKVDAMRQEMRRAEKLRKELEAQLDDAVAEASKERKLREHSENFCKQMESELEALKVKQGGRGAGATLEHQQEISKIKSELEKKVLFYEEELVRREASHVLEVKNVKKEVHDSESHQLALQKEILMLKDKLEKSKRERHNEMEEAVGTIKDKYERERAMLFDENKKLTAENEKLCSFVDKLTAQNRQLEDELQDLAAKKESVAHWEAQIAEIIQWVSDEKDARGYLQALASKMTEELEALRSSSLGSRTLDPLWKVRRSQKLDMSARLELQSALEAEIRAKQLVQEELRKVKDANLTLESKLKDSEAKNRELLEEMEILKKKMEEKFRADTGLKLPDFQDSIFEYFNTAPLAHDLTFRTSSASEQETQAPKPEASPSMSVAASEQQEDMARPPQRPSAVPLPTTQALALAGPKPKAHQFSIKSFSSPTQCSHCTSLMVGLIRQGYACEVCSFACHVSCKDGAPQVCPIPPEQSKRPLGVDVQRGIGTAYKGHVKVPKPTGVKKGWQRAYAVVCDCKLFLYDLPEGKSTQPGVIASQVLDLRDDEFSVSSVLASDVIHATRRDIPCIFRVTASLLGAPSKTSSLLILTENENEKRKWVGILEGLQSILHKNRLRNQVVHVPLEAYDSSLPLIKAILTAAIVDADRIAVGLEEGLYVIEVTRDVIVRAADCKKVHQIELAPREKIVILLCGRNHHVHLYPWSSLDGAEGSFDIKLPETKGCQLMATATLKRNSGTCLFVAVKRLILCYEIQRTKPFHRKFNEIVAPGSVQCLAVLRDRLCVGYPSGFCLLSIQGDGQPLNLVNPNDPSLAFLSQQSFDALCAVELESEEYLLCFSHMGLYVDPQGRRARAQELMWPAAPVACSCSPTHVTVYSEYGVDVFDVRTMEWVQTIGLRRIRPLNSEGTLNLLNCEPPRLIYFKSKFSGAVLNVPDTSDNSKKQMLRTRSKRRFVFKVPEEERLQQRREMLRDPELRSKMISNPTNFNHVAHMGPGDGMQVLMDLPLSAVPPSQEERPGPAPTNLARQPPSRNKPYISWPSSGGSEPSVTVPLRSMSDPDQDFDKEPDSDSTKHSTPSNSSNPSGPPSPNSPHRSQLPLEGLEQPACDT
# [27] = target: TEC (human) (UniProt P42680)
# [28] = target: PAK4 (human) (UniProt O96013)
# [29] = target: ERBB2 (human) (UniProt P04626)
# [30] = target: CDK6 CCND1 (human) (UniProt Q00534+P24385)
# Sequence of CDK6 CCND1 (human) (P24385 whole entry, looked up): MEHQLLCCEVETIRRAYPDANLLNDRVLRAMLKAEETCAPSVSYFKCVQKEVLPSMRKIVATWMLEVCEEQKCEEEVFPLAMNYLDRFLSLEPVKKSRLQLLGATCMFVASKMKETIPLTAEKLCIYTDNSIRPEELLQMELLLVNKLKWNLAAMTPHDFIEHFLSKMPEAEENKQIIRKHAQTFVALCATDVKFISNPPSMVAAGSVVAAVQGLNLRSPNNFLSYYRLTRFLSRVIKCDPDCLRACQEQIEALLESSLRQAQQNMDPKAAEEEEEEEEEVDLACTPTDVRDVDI
# Sequence of CDK6 CCND1 (human) (Q00534 whole entry, looked up): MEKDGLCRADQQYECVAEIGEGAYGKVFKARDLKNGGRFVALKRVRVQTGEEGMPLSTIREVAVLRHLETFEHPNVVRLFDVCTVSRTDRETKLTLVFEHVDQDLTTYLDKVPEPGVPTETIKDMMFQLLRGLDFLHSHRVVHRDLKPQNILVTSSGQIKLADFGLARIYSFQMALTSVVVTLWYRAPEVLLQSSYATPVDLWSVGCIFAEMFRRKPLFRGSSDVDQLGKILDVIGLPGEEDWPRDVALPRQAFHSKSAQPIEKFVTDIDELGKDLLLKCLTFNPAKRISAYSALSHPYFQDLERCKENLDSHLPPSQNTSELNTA
# [31] = target: PIM1 (human) (UniProt P11309)
# [32] = target: MERTK (human) (UniProt Q12866)
# [33] = target: DAPK1 (human) (UniProt P53355)
# [34] = target: TYK2 JH1 catalytic (human) (UniProt P29597)
# [35] = target: MAPK14 (human) (UniProt Q16539)
# [36] = target: MAP3K5 (human) (UniProt Q99683)
# [37] = target: MAPK12 (human) (UniProt P53778)
# [38] = target: TBK1 (human) (UniProt Q9UHD2)
# [39] = target: MAPK11 (human) (UniProt Q15759)
# [40] = target: CDK4 CCND3 (human) (UniProt P30281+P11802)
# [41] = target: CDK4 CCND1 (human) (UniProt P24385+P11802)
# [42] = target: CSNK1D (human) (UniProt P48730)
# Sequence of TXK (human) (P42681 whole entry, looked up): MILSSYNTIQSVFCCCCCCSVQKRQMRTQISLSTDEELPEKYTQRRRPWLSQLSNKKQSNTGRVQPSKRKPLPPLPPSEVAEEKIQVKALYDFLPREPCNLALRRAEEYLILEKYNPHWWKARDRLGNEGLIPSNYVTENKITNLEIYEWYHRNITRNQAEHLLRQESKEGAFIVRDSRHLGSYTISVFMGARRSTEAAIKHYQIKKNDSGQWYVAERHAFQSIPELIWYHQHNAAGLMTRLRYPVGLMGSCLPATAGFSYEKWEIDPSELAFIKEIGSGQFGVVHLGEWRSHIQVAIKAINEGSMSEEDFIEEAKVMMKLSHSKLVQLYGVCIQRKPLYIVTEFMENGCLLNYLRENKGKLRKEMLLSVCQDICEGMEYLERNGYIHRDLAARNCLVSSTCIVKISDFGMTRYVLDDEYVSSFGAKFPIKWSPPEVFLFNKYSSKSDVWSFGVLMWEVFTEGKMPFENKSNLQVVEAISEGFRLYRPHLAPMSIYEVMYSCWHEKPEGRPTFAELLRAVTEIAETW
structure (smiles),measurement,setting,value
O=C1Cc2c([nH]c3ccc([N+](=O)[O-])cc23)-c2ccccc2N1,residual activity,[1],132%
same,residual activity,[2],46.4%
same,residual activity,[3],105%
same,residual activity,[4],92.7%
same,residual activity,[5],87.3%
same,residual activity,[6],75.1%
same,residual activity,[7],105%
same,residual activity,[8],103%
same,residual activity,[9],106%
same,residual activity,[10],87.2%
same,residual activity,[11],9.22%
same,residual activity,[12],107%
same,residual activity,[13],92.4%
same,residual activity,[14],91.2%
same,residual activity,[15],85.9%
same,residual activity,[16],43.4%
same,residual activity,[17],53.1%
same,residual activity,[18],91.7%
same,residual activity,[19],103%
same,residual activity,[20],7.9%
same,residual activity,[21],99.7%
same,residual activity,[22],79.7%
same,residual activity,[23],19.4%
same,residual activity,[24],87.8%
same,residual activity,[25],98%
same,residual activity,[26],83.3%
same,residual activity,[27],137%
same,residual activity,[28],93.9%
same,residual activity,[29],94.8%
same,residual activity,[30],16.8%
same,residual activity,[31],92%
same,residual activity,[32],83.1%
same,residual activity,[33],104%
same,residual activity,[34],56.5%
same,residual activity,[35],92.1%
same,residual activity,[36],101%
same,residual activity,[37],112%
same,residual activity,[38],82.4%
same,residual activity,[39],102%
O=C(NC(NC(=S)Nc1ccc(F)c([N+](=O)[O-])c1)C(Cl)(Cl)Cl)C(c1ccccc1)c1ccccc1 (stereo unspecified),residual activity,[40],93.7%
same,residual activity,[1],92.1%
same,residual activity,[2],99.8%
same,residual activity,[3],103%
same,residual activity,[4],103%
same,residual activity,[5],108%
same,residual activity,[41],116%
same,residual activity,[6],104%
same,residual activity,[7],108%
same,residual activity,[8],102%
same,residual activity,[9],124%
same,residual activity,[10],101%
same,residual activity,[42],105%
same,residual activity,[11],104%
same,residual activity,[12],118%
same,residual activity,[13],112%
same,residual activity,[14],99.8%
same,residual activity,[15],95.3%
same,residual activity,[16],97.4%
same,residual activity,[17],91.2%
same,residual activity,[18],100%
same,residual activity,[19],104%
same,residual activity,[20],97.6%
same,residual activity,[21],110%
same,residual activity,[22],98.8%
same,residual activity,[23],91.6%
same,residual activity,[24],92.5%
same,residual activity,[25],111%
same,residual activity,[26],97.2%
same,residual activity,[27],201%
same,residual activity,[28],118%
same,residual activity,[29],94.8%
same,residual activity,[30],101%
same,residual activity,[31],101%
same,residual activity,[32],96.2%
same,residual activity,[33],75.1%
same,residual activity,[34],94%
same,residual activity,[35],101%
same,residual activity,[36],97.1%
same,residual activity,[38],98.7%
same,residual activity,[39],104%
CSc1nc(-c2ccc(F)cc2)c(-c2ccnc(NC(C)c3ccccc3)c2)[nH]1 (stereo unspecified),residual activity,[40],111%
same,residual activity,[1],127%
same,residual activity,[2],97.8%
same,residual activity,[3],92.2%
same,residual activity,[4],98.8%
same,residual activity,[5],93.1%
same,residual activity,[41],109%
same,residual activity,[6],97.2%
same,residual activity,[7],92.7%
same,residual activity,[8],81.3%
same,residual activity,[9],85.4%
same,residual activity,[10],99.9%
same,residual activity,[42],41.9%
same,residual activity,[11],91.8%
same,residual activity,[12],101%
same,residual activity,[13],89.9%
same,residual activity,[14],91.7%
same,residual activity,[15],98.4%
same,residual activity,[16],85.1%
same,residual activity,[17],98.7%
same,residual activity,[18],102%
same,residual activity,[19],94%
same,residual activity,[20],94.2%
same,residual activity,[21],98.5%
same,residual activity,[22],89.3%
same,residual activity,[23],96.5%
same,residual activity,[24],83.5%
same,residual activity,[25],99.1%
same,residual activity,[26],98.8%
same,residual activity,[27],120%
same,residual activity,[28],96.4%
same,residual activity,[29],99.2%
same,residual activity,[30],90.9%
same,residual activity,[31],91.8%
same,residual activity,[32],93.1%
same,residual activity,[33],101%
same,residual activity,[34],96.5%
same,residual activity,[35],7.64%
same,residual activity,[36],106%
same,residual activity,[38],92%
same,residual activity,[39],41.7%
